In patent US20100061948A1, “COMPOSITION FOR SKIN WHITENING COMPRISING ARTEMISININE” (priority 2007, published 2010):

Key:
[1] = system: Murine melanoma (B16 F10) cells; test: Inhibitory effect on melanin synthesis in murine B16 melanoma cells; format: cell-based; conditions: Mus musculus, 72 h, 3 days, read-out: Inhibition rate of melanin synthesis (%)
Method: In order to confirm the inhibitory effect of artemisinine on melanin synthesis, murine B16 melanoma cells were used to perform the following experiment.
Artemisinine used in the present experiment was purchased from Sigma.
Murine melanoma (B16 F10) cells were inoculated on 6 well plates containing DMEM media supplemented with 10% FBS (fetal bovine serum) (1×10^5 per well), and cultured in 5% CO2 at37° C. until reaching about 80% confluency. Then, media was removed from the cells, replaced with fresh media, and cultured in 5% CO2 at 37° C. for 3 days. […] Media was removed from the cells, and the cells were washed with PBS (phosphate buffered saline), followed by trypsin treatment. The cells were recovered, and counted using a hemocytometer. Then, the cells were centrifuged at 5,000 to 10,000 rpm for 10 min, and the supernatant was removed to obtain a pellet. The pellet was dried at 60° C., and suspended in 100 […] of 1 M sodium hydroxide solution containing 10% DMSO in a 60° C. water bath to obtain melanin in the cells. Absorbance was determined at 490 nm using a microplate reader to assess the melanin content per cell. As a control group, a known inhibitor of melanin synthesis, arbutin, was used.

tyrosinase = biological target: T1, tyrosinase (Mus musculus, UniProt P11344); test: Inhibitory effect on tyrosinase activity in murine B16 melanoma cells; format: cell-based; conditions: B16 F10 cells, 3 days, read-out: Inhibition rate of tyrosinase activity (%)
T1 construct: endogenous in cells; host or cells: murine melanoma B16 F10 cells
T1 sequence (P11344 19-533): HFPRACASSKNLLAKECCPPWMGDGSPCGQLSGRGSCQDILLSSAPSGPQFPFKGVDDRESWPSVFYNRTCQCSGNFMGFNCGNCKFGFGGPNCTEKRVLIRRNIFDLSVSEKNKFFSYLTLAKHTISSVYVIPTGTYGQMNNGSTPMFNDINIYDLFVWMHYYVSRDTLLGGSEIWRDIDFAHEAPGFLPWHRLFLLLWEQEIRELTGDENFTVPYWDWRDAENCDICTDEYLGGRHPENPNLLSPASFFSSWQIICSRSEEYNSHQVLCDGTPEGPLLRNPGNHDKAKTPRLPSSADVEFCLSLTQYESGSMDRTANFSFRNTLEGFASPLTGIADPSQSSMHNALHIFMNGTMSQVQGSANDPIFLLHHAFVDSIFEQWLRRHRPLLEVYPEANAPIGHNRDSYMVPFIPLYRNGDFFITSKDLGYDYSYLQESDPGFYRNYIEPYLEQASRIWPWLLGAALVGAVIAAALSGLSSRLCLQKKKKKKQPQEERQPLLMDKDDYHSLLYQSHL
Method: In order to confirm the inhibitory effect of artemisinine on tyrosinase activity, murine B16 melanoma cells were used to perform the following experiment.
Murine melanoma (B16 F10) cells were inoculated on 6 well plates containing DMEM media supplemented with 10% FBS (1×10^5 per well), and cultured in 5% CO2 at 37° C. until reaching about 80% confluency. Then, media was removed from the cells, replaced with fresh media, and cultured in 5% CO2 at37° C. for 3 days. […] Media was removed from the cells, and the cells were washed with PBS, followed by trypsin treatment. The cells were recovered, and counted using a hematocytometer. Then, the cells were centrifuged at 5,000 to 10,000 rpm for 10 min, and the supernatant was removed to obtain a pellet. The pellet was suspended in a lysis buffer, and centrifuged at 12,000 rpm for 10 min to collect the supernatant. Absorbance was determined at 492 nm using a microplate reader to assess the tyrosinase activity per cell. As a control group, arbutin was used.

[2] = system: Murine melanoma (B16 F10) cells; test: Cytotoxicity at treatment concentrations in B16 F10 cells; format: cell-based; conditions: 10 μM, 50 μM and 100 μM
[3] = system: brown guinea pigs (Tortoiseshell guinea pigs); test: Whitening effect on UV-induced pigmentation in brown guinea pigs (chromameter L*); format: in vivo; conditions: topical once or twice a day for 50 days, UV-pigmented guinea pig skin
Source text: In order to confirm the whitening effect of artemisinine in animals, brown guinea pigs (Tortoiseshell guinea pigs), which are known to increase pigmentation upon exposure to UV like human, were used to perform the following experiment.
(§1) To cause pigmentation in the brown guinea pig by UV, light-shielding aluminum foil with windows of 3×3 cm^2 was adhered to hair-removed abdominal skin of brown guinea pig, and then UV light was irradiated thereon with a SE lamp (wavelength 290-320 nm, Toshiba) (total irradiation energy=1350 mJ/cm^2). After UV irradiation, the aluminum foil was removed, and then the samples (artemisinine and arbutin) were applied as follows. […] From the maximum, each sample was applied. Applications were performed once or twice a day for 50 days. The samples were dissolved and diluted in a certain solvent (a mixed solvent of propylene glycol:ethanol:water=5:3:2) and applied with a swab. Another region was applied with the solvent only as a control. Occurrence of cumulative irritation also was examined.
The degree of skin pigmentation was determined using a chromameter (MINOLTA CR2002) to evaluate the effects. L*A*B* colorimetric system is used to classify color, and an L* value was used as standard in the present invention. The L* value was corrected using white board standard, and measured more than five times at one region, repeatedly. Pigmentation was evenly distributed. Skin color differences (ΔL*) between initial application point and terminal application point were obtained by using the following Mathematical Equation 1, and then using these values, their effects of the applied samples were evaluated.
ΔL*=L*value at terminal application day−L*value at initial application day [Mathematical Equation 1]
ΔL* values were obtained at sample application region and control application region and compared. From the result, the whitening effects of the samples can be evaluated.

[4] = system: brown guinea pigs (Tortoiseshell guinea pigs); test: Cumulative irritation examined in brown guinea pigs; format: in vivo; conditions: topical application for 50 days, guinea pig
Source text: as §1

For `C[C@@H]1CC[C@H]2[C@@H](C)C(=O)O[C@@H]3O[C@@]4(C)CC[C@@H]1[C@]32OO4` [Artemisinine, artemisinine], the inhibition at 10 µM ([1]; 10 μM) was 22%, the inhibition at 50 µM ([1]; 50 μM) was 50% and the inhibition at 100 µM [1] was 65%. For the same molecule, the inhibition at 10 µM (tyrosinase; 10 μM) was 19%, the inhibition at 50 µM (tyrosinase; 50 μM) was 38% and the inhibition at 100 µM (tyrosinase) was 67%. For the same molecule, the Cytotoxicity [2] was “no cytotoxicity”, the “Whitening effect (ΔL*)” value ([3]; 0.2 %) was 0.40 and the “Whitening effect (ΔL*)” value ([3]; 1.0 %) was 0.65. For the same molecule, the Cumulative irritation [4] was “no cumulative irritation”.

For `OC[C@H]1O[C@@H](Oc2ccc(O)cc2)[C@H](O)[C@@H](O)[C@@H]1O` [Arbutin, arbutin], the inhibition at 100 µM [1] was 52%, the inhibition at 100 µM (tyrosinase) was 45% and the “Whitening effect (ΔL*)” value ([3]; 1.0 %) was 0.55.
